Experiments:
[1] = logP by HPLC on reversed-phase column (EEC Directive 79/831 Annex V.A8); type: physicochemical; details: reversed-phase C18 HPLC column, 43° C., acidic range pH 2.7 (0.1% formic acid/acetonitrile), read-out: Log P
Method: The logP values reported in the preparation examples and tables above are determined in accordance with EEC Directive 79/831 Annex V.A8 by means of HPLC (High Performance Liquid Chromatography) on a reversed-phase column (C18). Temperature: 43° C. The determination with the LC-MS in the acidic range takes place at a pH of 2.7 using 0.1% aqueous formic acid and acetonitrile (containing 0.1% formic acid) as eluents; linear gradient from 10% acetonitrile to 95% acetonitrile. Calibration takes place using unbranched alkan-2-ones (having 3 to 16 carbon atoms) of which the logP values are known (logP values determined on the basis of the retention times, by linear interpolation between two successive alkanones).

Puccinia recondita = assay: Puccinia test (wheat)/protective; type: in vivo; details: wheat plants, protective spray, application rate 1500 ppm, evaluation 7-9 days after inoculation
Source text: Puccinia Test (Wheat)/Protective
• Solvent: 49 parts by weight of N,N-dimethylformamide • Emulsifier: 1 part by weight of alkylaryl polyglycol ether
An appropriate preparation of active compound is produced by mixing 1 part by weight of active compound with the stated amounts of solvent and emulsifier and diluting the concentrate with water to the desired concentration. To test for protective activity, young wheat plants are sprayed with the preparation of active compound at the stated application rate. A day after the treatment, the plants are inoculated with a spore suspension of Puccinia recondita and then stand for 48 hours at 100% relative humidity and 22° C. Subsequently the plants stand at 80% relative humidity and a temperature of 20° C. After 7-9 days following inoculation, evaluation takes place. Here, 0% denotes an efficacy which corresponds to that of the control, whereas an efficacy of 100% means that no infestation is observed.

## CC(C)(C)n1ncc2c(c1=O)Sc1c(cnn(C(C)(C)C)c1=O)S2 [Compound 7, 2,8-di-tert-butyl[1,4]dithilino[2,3-d:5,6-d′]dipyridazine-1,9(2H,8H)-dione]
[1]
  chromatographic logP: 4.6
Puccinia recondita
  Efficacy in %: 70%
